Results from patent EP4741401A1, “BENZOTHIAZOIMIDAZOLYL COMPOUND AND USE THEREOF” (ER Stress Research Institute, Inc., priority 2023, dated 2025).
pIC50: −log10 of the molar value.

Columns and labels:
[1] = tested on: endoplasmic reticulum stress response induced by Tm; experiment: Suppression of endoplasmic reticulum stress response (ERSE2-UPRE-AARE-EGFP reporter fluorescence); assay type: cell-based; conditions: 293A reporter cells, incubated at 37°C overnight, read-out: Suppression rank of endoplasmic reticulum stress response
Protocol: A solution of the compound synthesized in "(1) Synthesis of benzothiazoimidazolyl compound" was appropriately diluted with a DMEM solution containing 10% fetal bovine serum (FBS), and the diluted solution was added to a 384-well assay plate at 10 µL/well. Next, 30 µL of a culture medium containing the reporter cells and 10 µL of the Tm solution were mixed, and the mixture was added to the 384-well assay plate at 40 µL/well such that the cell density was 18 × 10^3 cells/well, and the whole was incubated at 37°C overnight.
A multi-plate reader Citation 3 (Bio-Tek) was used to determine the EGFP fluorescence intensity (excitation wavelength: 485 nm, fluorescence wavelength: 528 nm) when the test compound was added. A smaller fluorescence intensity indicates more suppression of the increase in activity of the endoplasmic reticulum stress marker induced by Tm.
A "control" containing the Tm solution and, in place of the test compound solution, an equal volume of DMSO was subjected to the measurement of fluorescence intensity in a similar manner. In addition, a "background" containing a solution prepared in the same manner as for the Tm solution except that no Tm was added and containing, in place of the test compound solution, an equal volume of DMSO was subjected to the measurement of fluorescence intensity in a similar manner.
The fluorescence intensity was determined while the concentration of the test compound was varied, and the 50% effective concentration (IC50) of suppressing the endoplasmic reticulum stress response induced by Tm was calculated.

[2] = tested on: 293A cells; experiment: Cytoprotection under endoplasmic reticulum stress conditions (Tm-induced cell death); assay type: cell-based; conditions: compound concentration inhibiting Tm-induced cell death by 50%, Tm 0.2 µg/mL, reporter cells
Protocol: The reporter cells same as those used in Example 1 were placed in each well of a 96-well assay plate and were treated with Tm at a final concentration of 0.2 µg/mL and the test compound. […]

Compound | pIC50 [1] | pIC50 [2]
CNC(=O)CCc1ccc2c(c1)sc1nc(-c3ccc(C(F)(F)F)cc3)cn12 [IBT-37, N-methyl-3-(2-(4-(trifluoromethyl)phenyl)benzo[d]imidazo[2,1-b]thiazol-7-yl)propanamide] | 7.00 to 8.00 | 7.52
CCCc1ccc(-c2cn3c(n2)sc2cc(S(C)(=O)=O)ccc23)cc1 [IBT-67, 7-(methylsulfonyl)-2-(4-propylphenyl)benzo[d]imidazo[2,1-b]thiazole] | 6.00 to 7.00 | 6.43
FC(F)(F)c1ccc(-c2cn3c(n2)sc2ccccc23)cc1 [IBT-40, 2-(4-(trifluoromethyl)phenyl)benzo[d]imidazo[2,1-b]thiazole] | 7.00 to 8.00 | 7.00
CS(=O)(=O)c1ccc2c(c1)sc1nc(-c3ccc(C(F)(F)F)cc3)cn12 [IBT-31, 7-(methylsulfonyl)-2-(4-(trifluoromethyl)phenyl)benzo[d]imidazo[2,1-b]thiazole] | ≥ 8.00 | 8.00
C#CCCC1(CCNC(=O)CCc2cccc3c2sc2nc(-c4ccc(C(F)(F)F)cc4)cn23)N=N1 [IBT-73, N-(2-(3-(but-3-yn-1-yl)-3H-diazirin-3-yl)ethyl)-3-(2-(4-(trifluoromethyl)phenyl)benzo[d]imidazo[2,1-b]thiazol-8-yl)propanamide 2,2,2-trifluoroacetate] | < 6.00 | 5.08
CC(C)(C)OC(=O)NCCCOc1cc(-c2cn3c(n2)sc2cc(S(C)(=O)=O)ccc23)ccc1Cl [IBT-58, tert-butyl (3-(2-chloro-5-(7-(methylsulfonyl)benzo[d]imidazo[2,1-b]thiazol-2-yl)phenoxy)propyl)carbamate] | < 6.00 | 5.49
C#CCNC(=O)CCc1ccc2c(c1)sc1nc(-c3ccc(C(F)(F)F)cc3)cn12 [IBT-57] | < 6.00 | 5.42
CS(=O)(=O)c1ccc2c(c1)sc1nc(-c3ccc(Cl)c(Cl)c3)cn12 [IBT-32, 2-(3,4-dichlorophenyl)-7-(methylsulfonyl)benzo[d]imidazo[2,1-b]thiazole] | 7.00 to 8.00 | 7.70
C#CCOc1cc(-c2cn3c(n2)sc2cc(S(C)(=O)=O)ccc23)ccc1Cl [IBT-56, 2-(4-chloro-3-(prop-2-yn-1-yloxy)phenyl)-7-(methylsulfonyl)benzo[d]imidazo[2,1-b]thiazole] | 6.00 to 7.00 | 6.25
OCc1ccc2c(c1)sc1nc(-c3ccc(Cl)cc3)cn12 [IBT-59, (2-(4-chlorophenyl)benzo[d]imidazo[2,1-b]thiazol-7-yl)methanol] | 6.00 to 7.00 | 6.39
CS(=O)(=O)c1ccc2c(c1)sc1nc(-c3ccc(Cl)cc3Cl)cn12 [IBT-44, 2-(2,4-dichlorophenyl)-7-(methylsulfonyl)benzo[d]imidazo[2,1-b]thiazole] | 6.00 to 7.00 | 6.35
COc1cc(-c2cn3c(n2)sc2cc(S(C)(=O)=O)ccc23)ccc1Cl [IBT-36, 2-(4-chloro-3-methoxyphenyl)-7-(methylsulfonyl)benzo[d]imidazo[2,1-b]thiazole] | ≥ 8.00 | 8.00
CC(C)(C)OC(=O)NCCOCCNC(=O)CCc1ccc2c(c1)sc1nc(-c3ccc(C(F)(F)F)cc3)cn12 [IBT-53, tert-butyl (2-(2-(3-(2-(4-(trifluoromethyl)phenyl)benzo[d]imidazo[2,1-b]thiazol-7-yl)propanamido)ethoxy)ethyl)carbamate] | < 6.00 | 5.35
CCOc1ccc2c(c1)sc1nc(-c3ccc(Cl)cc3)cn12 [IBT-46, 2-(4-chlorophenyl)-7-ethoxybenzo[d]imidazo[2,1-b]thiazole] | 6.00 to 7.00 | 6.25
CS(=O)(=O)c1ccc2c(c1)sc1nc(-c3ccc(F)cc3)cn12 [IBT-34, 2-(4-fluorophenyl)-7-(methylsulfonyl)benzo[d]imidazo[2,1-b]thiazole] | 7.00 to 8.00 | 7.10
C#CCCC1(CCOc2cccc(-c3cn4c(n3)sc3cc(S(C)(=O)=O)ccc34)c2)N=N1 [IBT-70, 2-(3-(2-(3-(but-3-yn-1-yl)-3H-diazirin-3-yl)ethoxy)phenyl)-7-(methylsulfonyl)benzo[d]imidazo[2,1-b]thiazole 2,2,2-trifluoroacetate] | 6.00 to 7.00 | 6.37
CCOc1ccc(-c2cn3c(n2)sc2cc(S(C)(=O)=O)ccc23)cc1 [IBT-64, 2-(4-ethoxyphenyl)-7-(methylsulfonyl)benzo[d]imidazo[2,1-b]thiazole] | 6.00 to 7.00 | 6.17
CNC(=O)CCCNS(=O)(=O)c1ccc2c(c1)sc1nc(-c3ccc(C(F)(F)F)cc3)cn12 [IBT-52, N-methyl-4-((2-(4-(trifluoromethyl)phenyl)benzo[d]imidazo[2,1-b]thiazole)-7-sulfonamido)butanamide] | 6.00 to 7.00 | 6.38
C#CCOc1ccc(-c2cn3c(n2)sc2cc(S(C)(=O)=O)ccc23)cc1 [IBT-41, 7-(methylsulfonyl)-2-(4-(prop-2-yn-1-yloxy)phenyl)benzo[d]imidazo[2,1-b]thiazole 2,2,2-trifluoroacetate] | 7.00 to 8.00 | 7.05
FC(F)(F)c1ccc(-c2cn3c(n2)sc2c(Br)cccc23)cc1 [IBT-72, 8-bromo-2-(4-(trifluoromethyl)phenyl)benzo[d]imidazo[2,1-b]thiazole] | 6.00 to 7.00 | 6.20
CNC(=O)CCCS(=O)(=O)c1ccc2c(c1)sc1nc(-c3ccc(C(F)(F)F)cc3)cn12 [IBT-38, N-methyl-4-((2-(4-(trifluoromethyl)phenyl)benzo[d]imidazo[2,1-b]thiazol-7-yl)sulfonyl)butanamide] | 7.00 to 8.00 | 7.05

The next lines start with results.

pIC50 [1] | Compound | pIC50 [2]
6.00 to 7.00 | CCN(CC)C(=O)CCCS(=O)(=O)c1ccc2c(c1)sc1nc(-c3ccc(C(F)(F)F)cc3)cn12 [IBT-55, N,N-diethyl-4-((2-(4-(trifluoromethyl)phenyl)benzo[d]imidazo[2,1-b]thiazol-7-yl)sulfonyl)butanamide] | 6.18
6.00 to 7.00 | CCOC(=O)c1ccc2c(c1)sc1nc(-c3ccc(Cl)cc3)cn12 [IBT-45, ethyl 2-(4-chlorophenyl)benzo[d]imidazo[2,1-b]thiazole-7-carboxylate] | 6.46
< 6.00 | CC(C)(C)OC(=O)NCCOCCNC(=O)CCc1cccc2c1sc1nc(-c3ccc(C(F)(F)F)cc3)cn12 [IBT-74, tert-butyl (2-(2-(3-(2-(4-(trifluoromethyl)phenyl)benzo[d]imidazo[2,1-b]thiazol-8-yl)propanamido)ethoxy)ethyl)carbamate] | 5.43
7.00 to 8.00 | Cc1ccc2c(c1)sc1nc(-c3ccc(C(F)(F)F)cc3)cn12 [IBT-68, 7-methyl-2-(4-(trifluoromethyl)phenyl)benzo[d]imidazo[2,1-b]thiazole] | 7.00
< 6.00 | CC(C)(C)OC(=O)NCCOCCOCCOc1cccc(-c2cn3c(n2)sc2cc(S(C)(=O)=O)ccc23)c1 [IBT-76, tert-butyl (2-(2-(2-(3-(7-(methylsulfonyl)benzo[d]imidazo[2,1-b]thiazol-2-yl)phenoxy)ethoxy)ethoxy)ethyl)carbamate] | 5.31
6.00 to 7.00 | C#CCOCc1ccc2c(c1)sc1nc(-c3ccc(Cl)cc3)cn12 [IBT-60, 2-(4-chlorophenyl)-7-((prop-2-yn-1-yloxy)methyl)benzo[d]imidazo[2,1-b]thiazole 2,2,2-trifluoroacetate] | 6.05
6.00 to 7.00 | C#CCCC1(CCOc2cc(-c3cn4c(n3)sc3cc(S(C)(=O)=O)ccc34)ccc2Cl)N=N1 [IBT-63, 2-(3-(2-(3-(but-3-yn-1-yl)-3H-diazirin-3-yl)ethoxy)-4-chlorophenyl)-7-(methylsulfonyl)benzo[d]imidazo[2,1-b]thiazole 2,2,2-trifluoroacetate] | 6.46
7.00 to 8.00 | CCN(CC)C(=O)CCc1ccc2c(c1)sc1nc(-c3ccc(C(F)(F)F)cc3)cn12 [IBT-39, N,N-diethyl-3-(2-(4-(trifluoromethyl)phenyl)benzo[d]imidazo[2,1-b]thiazol-7-yl)propanamide] | 7.10
< 6.00 | C#CCCC1(CCNC(=O)CCc2ccc3c(c2)sc2nc(-c4ccc(C(F)(F)F)cc4)cn23)N=N1 [IBT-61, N-(2-(3-(but-3-yn-1-yl)-3H-diazirin-3-yl)ethyl)-3-(2-(4-(trifluoromethyl)phenyl)benzo[d]imidazo[2,1-b]thiazol-7-yl)propanamide] | 5.38
7.00 to 8.00 | COc1cccc(-c2cn3c(n2)sc2cc(S(C)(=O)=O)ccc23)c1 [IBT-33, 2-(3-methoxyphenyl)-7-(methylsulfonyl)benzo[d]imidazo[2,1-b]thiazole] | 7.15
6.00 to 7.00 | CC(C)(C)OC(=O)NCCCOc1ccc(-c2cn3c(n2)sc2cc(S(C)(=O)=O)ccc23)cc1 [IBT-66, tert-butyl (3-(4-(7-(methylsulfonyl)benzo[d]imidazo[2,1-b]thiazol-2-yl)phenoxy)propyl)carbamate] | 6.08
6.00 to 7.00 | COc1ccc(-c2cn3c(n2)sc2cc(S(C)(=O)=O)ccc23)cc1 [IBT-43, 2-(4-methoxyphenyl)-7-(methylsulfonyl)benzo[d]imidazo[2,1-b] thiazole] | 6.77
